In patent US20210032257A1, “(E)-1-(4-(DIMETHYLAMINO)BUT-2-ENOYL)PYRROLIDIN-3-YL 4-((3-ISOPROPYL-5-METHYLPYRAZOLO[1,5-A]PYRIMIDIN-7-YL)AMINO)PIPERIDINE-1-CARBOXYLATE FOR INHIBITING CDK7” (Eli Lilly and Company, priority 2017, published 2021):

Experiments:
Test in all cases: ProQinase WT Profiler radiometric protein kinase assay
Format in all cases: biochemical
CDK16/CycY = target: T1, CDK16/CycY (Homo sapiens, UniProt Q00536); conditions: non standard IC50 from 4 concentrations, kinase 3.2 nM, ATP 0.3 μM
T1 construct: purchased ProQinase
Experimental: (§1) Kinase inhibition profile of compound is determined by measuring residual activity values at four concentrations in singlicate in 320 wild-type protein kinase assays. The compounds are tested at 20 μM, 2 μM, 0.2 μM and 0.02 μM in singlicate. The final DMSO concentration in all reaction cocktails (including high and low controls) is 1%.
(§2) A radiometric protein kinase assay (33PANQINASE® Activity Assay, ProQinase) is used for measuring the kinase activity of the 320 protein kinases. All kinase assays are performed in 96-well FLASHPLATES™ in a 50 μL reaction volume. The reaction cocktail is pipetted in 4 steps in the following order:
(§3) All PKC assays (except the PKC-mu and the PKC-nu assay) additionally contain 1 mM CaCl2). 4 mM EDTA, 5 μg/mL Phosphatidylserine and 1 μg/mL 1,2-Dioleyl-glycerol. The CAMK1D, CAMK2A, CAMK2B, CAMK2D, CAMK2G, CAMK4, CAMKK1, CAMKK2, DAPK2, EEF2K, MYLK, MYLK2 and MYLK3 assays additionally contain 1 μg/mL Calmodulin and 0.5 mM CaCl2). The PRKG1 and PRKG2 assays additionally contain 1 μM cGMP. The DNA-PK assay additionally contained 2.5 μg/mL DNA.
(§4) The protein kinase reaction cocktails are incubated at 30° C. for 60 minutes. The reaction is stopped with 50 μL of 2% (v/v) H3PO4, plates are aspirated and washed two times with 200 μL 0.9% (w/v) NaCl. […] All protein kinase assays are performed with a BeckmanCoulter BIOMEK® 2000/SL robotic system. All protein kinases provided by ProQinase are expressed in Sf9 insect cells or in E. coli as recombinant GST-fusion proteins or His-tagged proteins, either as full-length or enzymatically active fragments. All kinases are produced from human cDNAs and purified by either GSH-affinity chromatography or immobilized metal. Affinity tags are removed from a number of kinases during purification. The purity of the protein kinases is examined by SDS-PAGE/Coomassie staining, the identity is checked by mass spectroscopy. Kinases from external vendors (CAR=Carna Biosciences Inc.; INV=Life Technologies (Invitrogen Corporation™); MIL=Merck-Millipore (Millipore Corporation™), see Table 1) are expressed, purified and quality-controlled by virtue of the vendors readings.
(§5) For each kinase, the median value of the cpm of three wells is defined as “low control” (n=3). This value reflects unspecific binding of radioactivity to the plate in the absence of a protein kinase but in the presence of the substrate. […] The difference between high and low control of each enzyme is taken as 100% activity. As part of the data evaluation, the low control of each kinase is subtracted from the high control value as well as from their corresponding “compound values”. The residual activity (in %) for each compound well is calculated by using the following formula: Res. Activity (%)=100×[(signal of compound−low control)/(high control−low control)]. Non Standard IC50s are calculated using a customized excel spreadsheet in conjunction with XLFit Add-in. Due to the low number of data points, (4) XL-Fit calculates a non standard IC50 using a four parametric equation where three parameters are locked to fixed values.
(§6) A: Minimum value of activity, Also known as Bottom. Fixed to 0 B: Maximum value of activity, Also known as Top. Fixed to 100 C: Inflexion point of the curve D: Hill Slope. Fixed to 1 Y: The dependent variable (i.e. what you measure as the signal) X: The independent variable (i.e. what you control, such as, dose, concentration, etc.)
(§7) The way to calculate the Non Standard IC50 is to assign random values to C parameter and repeat it iteratively. The algorithm then measures the differences in the sum of the residuals squared and will look for successive consecutive iterations where the change in the residuals is converging.

CDK9/CycT1 = target: T2, CDK9/CycT1 (Homo sapiens, UniProt P50750); conditions: non standard IC50 from 4 concentrations, kinase 2.2 nM, ATP 1 μM
T2 construct: purchased ProQinase
Experimental: as §1, §2, §3, §4, §5, §6, §7

CDK2/CycE1 = target: T3, CDK2/CycE1 (Homo sapiens, UniProt P24941); conditions: non standard IC50 from 4 concentrations, kinase 1.5 nM, ATP 1 μM
T3 construct: purchased ProQinase
Experimental: as §1, §2, §3, §4, §5, §6, §7

CDK8/CycC = target: T4, CDK8/CycC (Homo sapiens, UniProt P49336); conditions: non standard IC50 from 4 concentrations, kinase 8.3 nM, ATP 1 μM
T4 construct: purchased ProQinase
Experimental: as §1, §2, §3, §4, §5, §6, §7

CDK19/CycC = target: T5, CDK19/CycC (Homo sapiens, UniProt Q9BWU1); conditions: non standard IC50 from 4 concentrations, kinase 30.9 nM, ATP 3 μM
T5 construct: purchased ProQinase
Experimental: as §1, §2, §3, §4, §5, §6, §7

CDK1/CycB1 = target: T6, CDK1/CycB1 (Homo sapiens, UniProt P06493); conditions: non standard IC50 from 4 concentrations, kinase 7 nM, ATP 1 μM
T6 construct: purchased ProQinase
Experimental: as §1, §2, §3, §4, §5, §6, §7

CDK6/CycD1 = target: T7, CDK6/CycD1 (Homo sapiens, UniProt Q00534); conditions: non standard IC50 from 4 concentrations, kinase 3.2 nM, ATP 3 μM
T7 construct: purchased ProQinase
Experimental: as §1, §2, §3, §4, §5, §6, §7

T5 sequence (Q9BWU1 whole entry): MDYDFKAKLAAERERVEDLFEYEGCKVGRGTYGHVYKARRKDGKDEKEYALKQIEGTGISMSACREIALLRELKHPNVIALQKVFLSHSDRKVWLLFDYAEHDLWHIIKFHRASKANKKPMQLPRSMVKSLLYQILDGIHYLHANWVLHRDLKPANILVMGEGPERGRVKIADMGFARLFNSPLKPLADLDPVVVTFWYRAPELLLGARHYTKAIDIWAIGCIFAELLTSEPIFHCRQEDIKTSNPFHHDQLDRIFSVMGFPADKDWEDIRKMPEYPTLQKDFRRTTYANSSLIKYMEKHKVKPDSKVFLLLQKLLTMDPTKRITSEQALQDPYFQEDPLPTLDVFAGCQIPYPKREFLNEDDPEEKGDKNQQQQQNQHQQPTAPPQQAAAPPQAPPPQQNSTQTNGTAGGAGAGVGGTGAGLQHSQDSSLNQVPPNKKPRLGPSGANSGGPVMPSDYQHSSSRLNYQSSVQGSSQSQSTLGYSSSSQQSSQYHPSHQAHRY
T5 sequence (P24863 whole entry partner): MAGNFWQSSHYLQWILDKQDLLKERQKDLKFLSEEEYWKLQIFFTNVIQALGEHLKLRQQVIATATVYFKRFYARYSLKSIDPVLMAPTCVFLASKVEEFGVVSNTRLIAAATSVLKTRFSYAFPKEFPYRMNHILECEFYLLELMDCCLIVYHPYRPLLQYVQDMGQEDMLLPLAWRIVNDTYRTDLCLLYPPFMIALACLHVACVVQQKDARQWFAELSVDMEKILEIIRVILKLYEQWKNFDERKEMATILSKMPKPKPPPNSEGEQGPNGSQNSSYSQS
T2 sequence (P50750 whole entry): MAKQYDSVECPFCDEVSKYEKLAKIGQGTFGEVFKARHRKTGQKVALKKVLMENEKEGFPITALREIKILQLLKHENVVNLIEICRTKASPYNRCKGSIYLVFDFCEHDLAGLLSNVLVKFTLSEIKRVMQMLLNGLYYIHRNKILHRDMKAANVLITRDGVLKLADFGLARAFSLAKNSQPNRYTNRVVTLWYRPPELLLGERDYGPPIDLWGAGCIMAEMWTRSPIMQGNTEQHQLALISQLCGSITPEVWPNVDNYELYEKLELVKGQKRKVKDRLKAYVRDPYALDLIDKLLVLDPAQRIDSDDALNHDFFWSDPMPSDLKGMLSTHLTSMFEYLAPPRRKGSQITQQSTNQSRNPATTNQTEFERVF
T2 sequence (O60563 whole entry partner): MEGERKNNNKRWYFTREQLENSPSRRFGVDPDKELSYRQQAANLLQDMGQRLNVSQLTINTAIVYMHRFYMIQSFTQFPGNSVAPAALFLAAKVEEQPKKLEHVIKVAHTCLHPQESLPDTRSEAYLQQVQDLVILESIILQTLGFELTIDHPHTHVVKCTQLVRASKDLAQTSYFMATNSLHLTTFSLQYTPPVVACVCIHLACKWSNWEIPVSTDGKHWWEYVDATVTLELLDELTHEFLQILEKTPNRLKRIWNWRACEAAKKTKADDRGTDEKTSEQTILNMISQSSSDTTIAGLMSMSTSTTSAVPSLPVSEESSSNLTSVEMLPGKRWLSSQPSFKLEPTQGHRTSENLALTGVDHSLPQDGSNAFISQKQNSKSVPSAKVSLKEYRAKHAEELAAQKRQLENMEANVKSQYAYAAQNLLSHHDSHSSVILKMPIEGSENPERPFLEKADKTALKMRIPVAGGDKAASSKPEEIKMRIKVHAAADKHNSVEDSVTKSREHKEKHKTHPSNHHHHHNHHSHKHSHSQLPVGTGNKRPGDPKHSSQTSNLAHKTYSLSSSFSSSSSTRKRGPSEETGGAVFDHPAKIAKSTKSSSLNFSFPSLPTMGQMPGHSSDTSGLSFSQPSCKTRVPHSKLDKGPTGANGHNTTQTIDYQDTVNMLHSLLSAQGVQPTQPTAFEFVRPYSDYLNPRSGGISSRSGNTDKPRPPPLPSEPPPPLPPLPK
T6 sequence (P06493 whole entry): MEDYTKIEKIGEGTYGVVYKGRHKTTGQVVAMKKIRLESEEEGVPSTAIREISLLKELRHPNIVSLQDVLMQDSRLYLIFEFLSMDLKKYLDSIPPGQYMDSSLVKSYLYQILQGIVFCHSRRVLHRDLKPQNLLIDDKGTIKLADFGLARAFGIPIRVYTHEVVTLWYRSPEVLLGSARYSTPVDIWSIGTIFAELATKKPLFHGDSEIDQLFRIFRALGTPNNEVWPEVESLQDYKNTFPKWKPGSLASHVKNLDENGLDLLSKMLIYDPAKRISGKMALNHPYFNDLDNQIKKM
T6 sequence (P14635 whole entry partner): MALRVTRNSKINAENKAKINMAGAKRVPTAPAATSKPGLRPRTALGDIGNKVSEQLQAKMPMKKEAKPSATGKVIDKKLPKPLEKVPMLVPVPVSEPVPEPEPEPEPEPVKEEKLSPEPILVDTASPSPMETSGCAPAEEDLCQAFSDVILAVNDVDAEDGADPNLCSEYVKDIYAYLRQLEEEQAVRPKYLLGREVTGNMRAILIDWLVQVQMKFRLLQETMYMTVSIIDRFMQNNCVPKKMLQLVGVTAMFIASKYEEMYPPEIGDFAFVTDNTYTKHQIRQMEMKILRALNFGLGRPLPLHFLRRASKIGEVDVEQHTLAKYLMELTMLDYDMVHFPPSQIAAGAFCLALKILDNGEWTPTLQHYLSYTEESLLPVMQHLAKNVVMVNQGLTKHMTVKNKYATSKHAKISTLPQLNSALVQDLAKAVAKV
T7 sequence (Q00534 whole entry): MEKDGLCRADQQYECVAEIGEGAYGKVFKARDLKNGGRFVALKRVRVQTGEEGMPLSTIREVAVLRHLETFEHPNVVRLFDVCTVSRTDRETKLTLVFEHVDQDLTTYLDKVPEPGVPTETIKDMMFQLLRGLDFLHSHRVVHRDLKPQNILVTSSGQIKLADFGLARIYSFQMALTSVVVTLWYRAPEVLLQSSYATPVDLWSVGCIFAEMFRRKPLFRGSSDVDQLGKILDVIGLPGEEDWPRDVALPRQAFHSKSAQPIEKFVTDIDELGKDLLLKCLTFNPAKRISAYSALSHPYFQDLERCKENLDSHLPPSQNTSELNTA
T7 sequence (P24385 whole entry partner): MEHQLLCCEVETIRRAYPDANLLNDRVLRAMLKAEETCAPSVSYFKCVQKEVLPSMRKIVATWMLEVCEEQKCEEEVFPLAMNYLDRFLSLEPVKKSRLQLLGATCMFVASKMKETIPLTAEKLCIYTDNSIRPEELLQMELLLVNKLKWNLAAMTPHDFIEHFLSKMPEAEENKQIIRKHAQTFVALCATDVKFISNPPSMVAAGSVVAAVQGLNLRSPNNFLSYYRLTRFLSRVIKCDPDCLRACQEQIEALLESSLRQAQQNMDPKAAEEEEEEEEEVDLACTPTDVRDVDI
T4 sequence (P49336 whole entry): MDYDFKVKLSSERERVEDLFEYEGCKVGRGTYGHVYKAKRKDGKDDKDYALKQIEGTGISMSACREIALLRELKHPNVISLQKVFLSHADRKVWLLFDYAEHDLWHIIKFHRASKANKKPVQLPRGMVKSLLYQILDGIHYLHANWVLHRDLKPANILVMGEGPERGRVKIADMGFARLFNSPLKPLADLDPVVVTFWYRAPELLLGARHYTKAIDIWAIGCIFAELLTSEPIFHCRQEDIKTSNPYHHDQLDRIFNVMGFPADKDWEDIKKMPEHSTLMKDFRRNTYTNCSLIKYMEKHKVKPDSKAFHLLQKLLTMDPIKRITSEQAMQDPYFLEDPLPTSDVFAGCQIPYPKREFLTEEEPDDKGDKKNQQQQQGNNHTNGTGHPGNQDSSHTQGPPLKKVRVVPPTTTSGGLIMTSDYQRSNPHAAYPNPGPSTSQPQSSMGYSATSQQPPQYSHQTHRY
T4 sequence (P24863 whole entry partner): as the sequence (P24863 whole entry partner) above
T1 sequence (Q00536 whole entry): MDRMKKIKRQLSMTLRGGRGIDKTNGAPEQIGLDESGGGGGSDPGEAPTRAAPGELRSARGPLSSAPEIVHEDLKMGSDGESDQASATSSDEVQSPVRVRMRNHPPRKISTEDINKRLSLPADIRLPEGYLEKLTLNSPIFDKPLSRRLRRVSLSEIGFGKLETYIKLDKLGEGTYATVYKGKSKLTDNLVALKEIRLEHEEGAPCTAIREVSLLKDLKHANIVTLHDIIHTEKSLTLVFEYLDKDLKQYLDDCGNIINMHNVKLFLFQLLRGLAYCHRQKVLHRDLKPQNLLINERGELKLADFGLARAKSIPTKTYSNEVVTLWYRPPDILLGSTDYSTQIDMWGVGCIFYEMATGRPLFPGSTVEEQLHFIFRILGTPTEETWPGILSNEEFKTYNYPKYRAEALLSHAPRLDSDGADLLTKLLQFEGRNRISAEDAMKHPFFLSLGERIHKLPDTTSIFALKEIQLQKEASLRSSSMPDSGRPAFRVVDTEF
T1 sequence (Q8ND76 whole entry partner): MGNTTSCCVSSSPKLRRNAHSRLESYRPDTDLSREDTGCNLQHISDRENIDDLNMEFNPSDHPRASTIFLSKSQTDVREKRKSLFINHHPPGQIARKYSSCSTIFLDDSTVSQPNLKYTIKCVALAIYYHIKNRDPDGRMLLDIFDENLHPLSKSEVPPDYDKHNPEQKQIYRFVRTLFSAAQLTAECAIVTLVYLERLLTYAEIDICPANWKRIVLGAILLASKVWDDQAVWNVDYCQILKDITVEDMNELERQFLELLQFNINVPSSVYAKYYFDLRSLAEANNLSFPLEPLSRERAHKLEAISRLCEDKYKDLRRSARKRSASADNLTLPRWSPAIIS

`Cc1cc(NC2CCN(C(=O)O[C@H]3CCN(C(=O)/C=C/CN(C)C)C3)CC2)n2ncc(C(C)C)c2n1` [Example 1, [(3S)-1-[(E)-4-(dimethylamino)but-2-enoyl]pyrrolidin-3-yl] 4-[(3-isopropyl-5-methyl-pyrazolo[1,5-a]pyrimidin-7-yl)amino]piperidine-1-carboxylate] showed an IC50 (CDK16/CycY) of 9.07 µM, an IC50 (CDK9/CycT1) of 6.32 µM and an IC50 (CDK2/CycE1) of no less than 20 µM. For the same compound, the IC50 (CDK8/CycC) was 10.9 µM, the IC50 (CDK19/CycC) was 7.41 µM and the IC50 (CDK1/CycB1) was no less than 20 µM. The IC50 (CDK6/CycD1) was 8.08 µM.
